From patent US12122778B2, “Activating pyruvate kinase R” (Novo Nordisk Health Care AG, priority 2018, dated 2024)

Tests used:
PKR(wt) = PKR(wt) (Homo sapiens, UniProt P30613); test: Luminescence Biochemical Assay (Kinase Glo Plus), wild type PKR; conditions: without FBP; for activation at 1.54 µM: 1.54 μM compound, read-out: AC50 LUM KGP woFBP % Fold@1.54 μM mean; for AC50: read-out: AC50 LUM KGP woFBP AC50 μM gmean; for Emax: read-out: AC50 LUM KGP woFBP MAX % FOLD mean
PKR(R510Q) = PKR(R510Q) (Homo sapiens, UniProt P30613, R510Q); test: Luminescence Biochemical Assay (Kinase Glo Plus), PKR R510Q mutant; conditions: without FBP; for activation at 1.54 µM: 1.54 μM compound, read-out: AC50 LUM KGP woFBP % Fold@1.54 μM mean; for AC50: read-out: AC50 LUM KGP woFBP AC50 μM gmean; for Emax: read-out: AC50 LUM KGP woFBP MAX % FOLD mean
PKR(G332S) = PKR(G332S) (Homo sapiens, UniProt P30613, G332S); test: Luminescence Biochemical Assay (Kinase Glo Plus), PKR G332S mutant; conditions: with FBP; for activation at 1.54 µM: 1.54 μM compound, read-out: AC50 LUM KGP FBP % Fold@1.54 μM mean; for AC50: read-out: AC50 LUM KGP FBP AC50 μM gmean (column A); for Emax: read-out: AC50 LUM KGP FBP MAX % FOLD mean
Chain of PKR(G332S) (P30613 whole entry G332S): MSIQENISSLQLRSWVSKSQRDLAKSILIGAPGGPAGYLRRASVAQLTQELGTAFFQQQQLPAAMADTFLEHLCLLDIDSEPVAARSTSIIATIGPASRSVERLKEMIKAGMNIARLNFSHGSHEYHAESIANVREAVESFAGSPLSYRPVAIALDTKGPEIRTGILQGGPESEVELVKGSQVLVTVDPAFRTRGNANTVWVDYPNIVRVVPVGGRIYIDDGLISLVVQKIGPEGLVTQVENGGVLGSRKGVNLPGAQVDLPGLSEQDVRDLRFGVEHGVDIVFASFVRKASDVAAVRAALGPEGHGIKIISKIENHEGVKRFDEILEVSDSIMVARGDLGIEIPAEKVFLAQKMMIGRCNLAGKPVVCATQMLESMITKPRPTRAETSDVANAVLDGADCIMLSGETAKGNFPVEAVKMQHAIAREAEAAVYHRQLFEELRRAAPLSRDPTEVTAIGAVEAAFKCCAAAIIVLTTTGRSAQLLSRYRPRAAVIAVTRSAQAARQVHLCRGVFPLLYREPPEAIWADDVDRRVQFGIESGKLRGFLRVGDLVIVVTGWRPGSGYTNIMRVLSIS

Chain of PKR(wt) (P30613 whole entry): as the sequence (P30613 whole entry G332S) above, with S332G counted along it
Chain of PKR(R510Q) (P30613 whole entry R510Q): as the sequence (P30613 whole entry G332S) above, with S332G, R510Q counted along it

activation at 1.54 µM (PKR(wt)) [%]	AC50 (PKR(wt)) [µM]	Emax (PKR(wt)) [%]	activation at 1.54 µM (PKR(R510Q)) [%]	AC50 (PKR(R510Q)) [µM]	Emax (PKR(R510Q)) [%]	activation at 1.54 µM (PKR(G332S)) [%]	AC50 (PKR(G332S)) [µM]	Emax (PKR(G332S)) [%]	Structure (SMILES)
75 to 250	0.1 to 1	75 to 250	75 to 250	1 to 40	75 to 250	75 to 250	1 to 40	75 to 250	CN1CCOc2ccc(S(=O)(=O)N3CC4=C(CN(C(=O)[C@H]5CCCO5)C4)C3)cc21 [Example 18-2, 4-Methyl-6-({5-[(2R)-oxolane-2-carbonyl]-1H,2H,3H,4H,5H,6H-pyrrolo[3,4-c]pyrrol-2-yl}sulfonyl)-3,4-dihydro-2H-1,4-benzoxazine]
75 to 250	0.1 to 1	75 to 250	75 to 250	1 to 40	250 to 500	75 to 250	0.1 to 1	75 to 250	CC(C)Oc1ccc(S(=O)(=O)N2CC3=C(CN(C(=O)[C@H](O)c4ccccc4)C3)C2)cc1 [Example 18-12, (2R)-2-hydroxy-2-phenyl-1-{5-[4-(propan-2-yloxy)benzenesulfonyl]-1H,2H,3H,4H,5H,6H-pyrrolo[3,4-c]pyrrol-2-yl}ethan-1-one]
250 to 50000	≤ 0.1	250 to 500	250 to 50000	≤ 0.1	250 to 500	75 to 250	≤ 0.1	75 to 250	O=C([C@H](O)c1ccccc1)N1CC2=C(C1)CN(S(=O)(=O)c1ccc(OC(F)F)cc1)C2 [Example 18-13, (2R)-1-{5-[4-(difluoromethoxy)benzenesulfonyl]-1H,2H,3H,4H,5H,6H-pyrrolo[3,4-c]pyrrol-2-yl}-2-hydroxy-2-phenylethan-1-one]
75 to 250	≤ 0.1	75 to 250	250 to 50000	≤ 0.1	250 to 500	75 to 250	≤ 0.1	75 to 250	O=C([C@H](O)c1ccccc1)N1CC2=C(C1)CN(S(=O)(=O)c1cccc(OC(F)F)c1)C2 [Example 18-15, (2R)-1-{5-[3-(difluoromethoxy)benzene-sulfonyl]-1H,2H,3H,4H,5H,6H-pyrrolo[3,4-c]pyrrol-2-yl}-2-hydroxy-2-phenylethan-1-one]
250 to 50000	0.1 to 1	250 to 500	250 to 50000	0.1 to 1	250 to 500	75 to 250	≤ 0.1	75 to 250	O=C(Cn1cnnn1)N1CC2=C(C1)CN(S(=O)(=O)c1ccc(OC(F)F)cc1)C2 [Example 18-19, 1-(5-((4-(difluoromethoxy)phenyl)sulfonyl)-3,4,5,6-tetrahydropyrrolo[3,4-c]pyrrol-2(1H)-yl)-2-(1H-tetrazol-1-yl)ethan-1-one]
250 to 50000	0.1 to 1	250 to 500	75 to 250	1 to 40	250 to 500	75 to 250	1 to 40	75 to 250	Cc1nc(CC(=O)N2CC3=C(C2)CN(S(=O)(=O)c2ccc(OC(F)F)cc2)C3)cs1 [Example 18-20, 1-{5-[4-(Difluoromethoxy)benzene-sulfonyl]-1H,2H,3H,4H,5H,6H-pyrrolo[3,4-c]pyrrol-2-yl}-2-(2-methyl-1,3-thiazol-4-yl)ethan-1-one]
75 to 250	1 to 40	250 to 500	75 to 250	1 to 40	250 to 500	75 to 250	0.1 to 1	75 to 250	O=C(Cn1cccn1)N1CC2=C(C1)CN(S(=O)(=O)c1ccc(OC(F)F)cc1)C2 [Example 18-21, 1-{5-[4-(Difluoromethoxy)benzenesulfonyl]-1H,2H,3H,4H,5H,6H-pyrrolo[3,4-c]pyrrol-2-yl}-2-(1H-pyrazol-1-yl)ethan-1-one]
75 to 250	0.1 to 1	250 to 500	250 to 50000	0.1 to 1	250 to 500	75 to 250	≤ 0.1	75 to 250	O=C(C(O)c1cccc(F)c1)N1CC2=C(C1)CN(S(=O)(=O)c1ccc(OC(F)F)cc1)C2 (stereo not drawn) [Example 18-22, 1-{5-[4-(Difluoromethoxy)benzenesulfonyl]-1H,2H,3H,4H,5H,6H-pyrrolo[3,4-c]pyrrol-2-yl}-2-(3-fluorophenyl)-2-hydroxyethan-1-one]
75 to 250	0.1 to 1	250 to 500	250 to 50000	1 to 40	250 to 500	75 to 250	0.1 to 1	75 to 250	O=C(C(O)c1ccc(F)c(F)c1)N1CC2=C(C1)CN(S(=O)(=O)c1ccc(OC(F)F)cc1)C2 (stereo not drawn) [Example 18-23, 1-{5-[4-(Difluoromethoxy)benzenesulfonyl]-1H,2H,3H,4H,5H,6H-pyrrolo[3,4-c]pyrrol-2-yl}-2-(3,4-difluorophenyl)-2-hydroxyethan-1-one]
250 to 50000	0.1 to 1	250 to 500	250 to 50000	≤ 0.1	250 to 500	75 to 250	≤ 0.1	75 to 250	O=C(C(F)c1ccccc1)N1CC2=C(C1)CN(S(=O)(=O)c1ccc(OC(F)F)cc1)C2 (stereo not drawn) [Example 18-24, 1-{5-[4-(Difluoromethoxy)benzenesulfonyl]-1H,2H,3H,4H,5H,6H-pyrrolo[3,4-c]pyrrol-2-yl}-2-fluoro-2-phenylethan-1-one]
250 to 50000	≤ 0.1	250 to 500	250 to 50000	≤ 0.1	250 to 500	75 to 250	≤ 0.1	75 to 250	O=C(N1CC2=C(C1)CN(S(=O)(=O)c1ccc(OC(F)F)cc1)C2)C(F)(F)c1ccccc1 [Example 18-25, 1-(5-((4-(Difluoromethoxy)phenyl)sulfonyl)-3,4,5,6-tetrahydropyrrolo[3,4-c]pyrrol-2(1H)-yl)-2,2-difluoro-2-phenylethan-1-one]
250 to 50000	0.1 to 1	250 to 500	250 to 50000	0.1 to 1	250 to 500	75 to 250	≤ 0.1	75 to 250	O=C(Cc1cccnc1)N1CC2=C(C1)CN(S(=O)(=O)c1ccc(OC(F)F)cc1)C2 [Example 18-26, 1-{5-[4-(Difluoromethoxy)benzenesulfonyl]-1H,2H,3H,4H,5H,6H-pyrrolo[3,4-c]pyrrol-2-yl}-2-(pyridin-3-yl)ethan-1-one]
75 to 250	1 to 40	75 to 250	75 to 250	1 to 40	75 to 250	75 to 250	1 to 40	75 to 250	O=C(Cc1ccc[nH]1)N1CC2=C(C1)CN(S(=O)(=O)c1ccc(OC(F)F)cc1)C2 [Example 18-27, 1-{5-[4-(Difluoromethoxy)benzenesulfonyl]-1H,2H,3H,4H,5H,6H-pyrrolo[3,4-c]pyrrol-2-yl}-2-(1H-pyrrol-2-yl)ethan-1-one]
250 to 50000	1 to 40	250 to 500	250 to 50000	1 to 40	250 to 500	75 to 250	0.1 to 1	75 to 250	O=C(Cc1ncccn1)N1CC2=C(C1)CN(S(=O)(=O)c1ccc(OC(F)F)cc1)C2 [Example 18-28, 1-{5-[4-(Difluoromethoxy)benzenesulfonyl]-1H,2H,3H,4H,5H,6H-pyrrolo[3,4-c]pyrrol-2-yl}-2-(pyrimidin-2-yl)ethan-1-one]
75 to 250	1 to 40	250 to 500	75 to 250	1 to 40	250 to 500	75 to 250	≤ 0.1	75 to 250	O=C(Cc1cnccn1)N1CC2=C(C1)CN(S(=O)(=O)c1ccc(OC(F)F)cc1)C2 [Example 18-29, 1-{5-[4-(Difluoromethoxy)benzenesulfonyl]-1H,2H,3H,4H,5H,6H-pyrrolo[3,4-c]pyrrol-2-yl}-2-(pyrazin-2-yl)ethan-1-one]
250 to 50000	0.1 to 1	250 to 500	250 to 50000	0.1 to 1	250 to 500	75 to 250	≤ 0.1	75 to 250	Cc1ccc(CC(=O)N2CC3=C(C2)CN(S(=O)(=O)c2ccc(OC(F)F)cc2)C3)cn1 [Example 18-30, 1-{5-[4-(Difluoromethoxy)benzenesulfonyl]-1H,2H,3H,4H,5H,6H-pyrrolo[3,4-c]pyrrol-2-yl}-2-(6-methylpyridin-3-yl)ethan-1-one]
250 to 50000	≤ 0.1	250 to 500	250 to 50000	≤ 0.1	250 to 500	75 to 250	≤ 0.1	75 to 250	O=C([C@H](O)c1ccc(F)cc1)N1CC2=C(C1)CN(S(=O)(=O)c1ccc(OC(F)F)cc1)C2 [Example 18-31, (2R)-1-{5-[4-(difluoromethoxy)benzenesulfonyl]-1H,2H,3H,4H,5H,6H-pyrrolo[3,4-c]pyrrol-2-yl}-2-(4-fluorophenyl)-2-hydroxyethan-1-one]
